Laboratory results: patent US10781224B2, “Bis(oxymethyl)phosphinic acid and biogenic metal salts thereof as regulators of plant growth and development” (priority 2016, dated 2020)

How the values were obtained:
Assay type in all cases: in vivo
[1] = test system: winter wheat (Vershin variety); experiment: Winter wheat seed treatment with BHMPA salts: germination energy and germination rate
Summary of the method: (§1)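 Corn, winter wheat and rice seeds (50 per dish, on filter paper) were soaked for 1 h in BHMPA or its metal salts at 1·10^−6-1·10^−12%, with water as control. Germination energy was read on day 4 and germination rate on day 8 for wheat and day 7 for rice and corn, following GOST 12038-84, as the mean of four replicates.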

[2] = test system: corn (Krasnodar 385 MV variety); experiment: Corn seed treatment with BHMPA salts: germinating power
Summary of the method: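 Seeds (50 per Petri dish on two layers of filter paper) soaked 1 h in BHMPA or its Ca, Mg, Na, Co, Mn, Cu or Zn salts at 1·10^−6-1·10^−12%, with water controls. Germination energy read on day 4, germination on day 8 (wheat) or day 7 (rice, corn), as % means of four replicates. Germinating power taken as root and sprout length plus wet and dry mass per 100 seedlings.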

[3] = test system: corn (Krasnodar 385 MV variety); experiment: Corn seed treatment with BHMPA salts: germination energy and germination rate
Summary of the method: as §1

[4] = winter wheat Vershin, 1·10^−6% solution
[5] = winter wheat Vershin, 1·10^−7% solution
[6] = winter wheat Vershin, 1·10^−8% solution
[7] = winter wheat Vershin, 1·10^−9% solution
[8] = winter wheat Vershin, 1·10^−10% solution
[9] = winter wheat Vershin, 1·10^−11% solution
[10] = winter wheat Vershin, 1·10^−12% solution
[11] = winter wheat, comparative study vs Melaphen, 1·10^−9% solution
[12] = corn seeds, solution concentration 1 · 10^−6%, zinc salt of BHMPA
[13] = corn seeds, solution concentration 1 · 10^−7%, zinc salt of BHMPA
[14] = corn seeds, solution concentration 1 · 10^−8%, zinc salt of BHMPA
[15] = corn seeds, solution concentration 1 · 10^−9%, zinc salt of BHMPA
[16] = corn seeds, solution concentration 1 · 10^−10%, zinc salt of BHMPA
[17] = corn seeds, solution concentration 1 · 10^−11%, zinc salt of BHMPA
[18] = corn seeds, solution concentration 1 · 10^−12%, zinc salt of BHMPA
[19] = 1·10^−9% solution, listed as Zn
[20] = comparative study vs Melaphen, 1·10^−8% solution

O=P([O-])(CO)CO.O=P([O-])(CO)CO.[Zn+2] [Zn-salt, Zinc BHMPA Salt]
Germination energy [1, 4]: 91.9%
Germination rate [1, 4]: 95.3%
Germination energy [1, 5]: 92.7%
Germination rate [1, 5]: 96.0%
Germination energy [1, 6]: 94.1%
Germination rate [1, 6]: 97.3%
Germination energy [1, 7]: 96.1%
Germination rate [1, 7]: 98.3%
Germination energy [1, 8]: 95.4%
Germination rate [1, 8]: 97.3%
Germination energy [1, 9]: 93.2%
Germination rate [1, 9]: 96.0%
Germination energy [1, 10]: 92.3%
Germination rate [1, 10]: 96.0%
Germination energy [1, 11]: 94.0%
Germination rate [1, 11]: 97.3%
optimum concentration for treating corn seeds before sowing ([2]; corn): 1·10^−8%
Length, root [2, 12]: 5.3 cm
Length, root, + % to control [2, 12]: 13%
Length, sprout [2, 12]: 3.4 cm
Length, sprout, + % to control [2, 12]: 3%
Mass, dry, root [2, 12]: 1.17 g/100 plantlings
Mass, dry, root, + % to control [2, 12]: 12.5%
Mass, dry, sprout [2, 12]: 0.97 g/100 plantlings
Mass, dry, sprout, + % to control [2, 12]: 13%
Mass, wet, root [2, 12]: 6.98 g/100 plantlings
Mass, wet, root, + % to control [2, 12]: 8.5%
Mass, wet, sprout [2, 12]: 5.99 g/100 plantlings
Mass, wet, sprout, + % to control [2, 12]: 5%
Length, root [2, 13]: 5.6 cm
Length, root, + % to control [2, 13]: 19%
Length, sprout [2, 13]: 3.5 cm
Length, sprout, + % to control [2, 13]: 6%
Mass, dry, root [2, 13]: 1.30 g/100 plantlings
Mass, dry, root, + % to control [2, 13]: 25%
Mass, dry, sprout [2, 13]: 1.10 g/100 plantlings
Mass, dry, sprout, + % to control [2, 13]: 28%
Mass, wet, root [2, 13]: 7.46 g/100 plantlings
Mass, wet, root, + % to control [2, 13]: 16%
Mass, wet, sprout [2, 13]: 7.03 g/100 plantlings
Mass, wet, sprout, + % to control [2, 13]: 24%
Length, root [2, 14]: 5.9 cm
Length, root, + % to control [2, 14]: 25.5%
Length, sprout [2, 14]: 4.0 cm
Mass, dry, root [2, 14]: 1.36 g/100 plantlings
Mass, dry, sprout [2, 14]: 1.13 g/100 plantlings
Mass, wet, root [2, 14]: 8.18 g/100 plantlings
Mass, wet, sprout [2, 14]: 7.82 g/100 plantlings
Length, root [2, 15]: 5.8 cm
Length, root, + % to control [2, 15]: 23%
Length, sprout [2, 15]: 3.8 cm
Length, sprout, + % to control [2, 15]: 15%
Mass, dry, root [2, 15]: 1.19 g/100 plantlings
Mass, dry, root, + % to control [2, 15]: 14%
Mass, dry, sprout [2, 15]: 1.06 g/100 plantlings
Mass, dry, sprout, + % to control [2, 15]: 23%
Mass, wet, root [2, 15]: 7.39 g/100 plantlings
Mass, wet, root, + % to control [2, 15]: 15%
Mass, wet, sprout [2, 15]: 6.99 g/100 plantlings
Mass, wet, sprout, + % to control [2, 15]: 23%
Length, root [2, 16]: 5.5 cm
Length, root, + % to control [2, 16]: 15%
Length, sprout [2, 16]: 3.7 cm
Length, sprout, + % to control [2, 16]: 12%
Mass, dry, root [2, 16]: 1.13 g/100 plantlings
Mass, dry, root, + % to control [2, 16]: 9%
Mass, dry, sprout [2, 16]: 1.00 g/100 plantlings
Mass, dry, sprout, + % to control [2, 16]: 16%
Mass, wet, root [2, 16]: 6.96 g/100 plantlings
Mass, wet, root, + % to control [2, 16]: 8%
Mass, wet, sprout [2, 16]: 6.29 g/100 plantlings
Mass, wet, sprout, + % to control [2, 16]: 11%
Length, root [2, 17]: 5.2 cm
Length, root, + % to control [2, 17]: 11%
Length, sprout [2, 17]: 3.6 cm
Length, sprout, + % to control [2, 17]: 9%
Mass, dry, root [2, 17]: 1.10 g/100 plantlings
Mass, dry, root, + % to control [2, 17]: 6%
Mass, dry, sprout [2, 17]: 0.97 g/100 plantlings
Mass, dry, sprout, + % to control [2, 17]: 13%
Mass, wet, root [2, 17]: 6.81 g/100 plantlings
Mass, wet, root, + % to control [2, 17]: 6%
Mass, wet, sprout [2, 17]: 5.93 g/100 plantlings
Mass, wet, sprout, + % to control [2, 17]: 4%
Length, root [2, 18]: 4.8 cm
Length, root, + % to control [2, 18]: 2%
Length, sprout [2, 18]: 3.5 cm
Length, sprout, + % to control [2, 18]: 6%
Mass, dry, root [2, 18]: 0.93 g/100 plantlings
Mass, dry, root, + % to control [2, 18]: −10.5%
Mass, dry, sprout [2, 18]: 0.89 g/100 plantlings
Mass, dry, sprout, + % to control [2, 18]: 3%
Mass, wet, root [2, 18]: 6.47 g/100 plantlings
Mass, wet, root, + % to control [2, 18]: 1%
Mass, wet, sprout [2, 18]: 5.71 g/100 plantlings
Mass, wet, sprout, + % to control [2, 18]: 0.5%
Length, root, + % to control ([2]; corn, 1·10^−8% solution): 25.5%
Length, sprout, + % to control ([2]; corn, 1·10^−8% solution): 21%
Mass, dry, root, + % to control ([2]; corn, 1·10^−8% solution): 31%
Mass, dry, sprout, + % to control ([2]; corn, 1·10^−8% solution): 31%
Mass, wet, root, + % to control ([2]; corn, 1·10^−8% solution): 27%
Mass, wet, sprout, + % to control ([2]; corn, 1·10^−8% solution): 38%
Germination energy ([3]; 1·10^−6% solution): 77.7%
Germination rate ([3]; 1·10^−6% solution): 80.0%
Germination energy ([3]; 1·10^−7% solution): 84.0%
Germination rate ([3]; 1·10^−7% solution): 86.7%
Germination energy ([3]; 1·10^−8% solution): 88.3%
Germination rate ([3]; 1·10^−8% solution): 90.8%
Germination energy ([3]; 1·10^−9% solution): 88.3%
Germination rate ([3]; 1·10^−9% solution): 90.8%
Germination energy [3, 19]: 84.2%
Germination rate [3, 19]: 86.7%
Germination energy ([3]; 1·10^−10% solution): 82.3%
Germination rate ([3]; 1·10^−10% solution): 85.0%
Germination energy ([3]; 1·10^−11% solution): 80.7%
Germination rate ([3]; 1·10^−11% solution): 83.3%
Germination energy ([3]; 1·10^−12% solution): 79.0%
Germination rate ([3]; 1·10^−12% solution): 81.7%
Germination energy [3, 20]: 88.0%
Germination rate [3, 20]: 95.7%
